Source: patent US20240124503A1, “HETEROAROMATIC PHOSPHONIUM SALTS AND THEIR USE TREATING CANCER” (FLORATEK PHARMA S.A., priority 2021, published 2024)

Tests used:
breast PDX = assay: Cell viability, breast PDX (panel statement); type: cell-based; conditions: Table 5; read-out: IC50, growth of breast PDX
Procedure: PDX-derived cell cultures were obtained from tumors explanted from mice and isolated by mechanical and enzymatic dissociation. […] Cells were harvested and seeded in 96-wells plates at a density of 1.25 to 5×10^3 cells/well for cytotoxicity assays. Cells were incubated 48 h at 37° C. prior to addition of test molecules and vehicle (DMSO, 0.1%) at desired final concentrations. Cell viability was assessed before drugs' addition (To) and 5 days after test molecules addition by measuring ATP cell content using CellTiter-Glo® Luminescent Cell Viability Assay (Promega) according to the manufacturer's instructions. Luciferase activity was measured on a luminometer (PerkinElmer® EnVision™). Each concentration of compounds was tested in triplicate.
Viability was calculated as a percentage of ATP value compared to vehicle treated controls.
For PDX primary cell cultures, the tumour tissue was washed with PBS containing antibiotic-antimycotic and non-tumour tissue and necrotic tumour tissues were separated. The tumour tissue was transferred to a new dish and cut into 1˜2 mm^3 fragments, resuspended in RPMI-1640 medium and centrifuged at 1,200 rpm for 6 min at room temperature. The pelleted material was resuspended with 15 mL of Tumour Cell Digestion Solution and incubated at 37° C. for 1 hour with agitation. […]

ABL1-nonphosphorylated = target: T1, ABL1-nonphosphorylated (Homo sapiens, UniProt P00519); assay: KINOMEscan competition binding, ABL1-nonphosphorylated
T1 construct: purchased Eurofins (KINOMEscan); host or cells: E. coli BL21-derived host (T7 phage) or HEK-293
Procedure: Selected compounds were screened for kinase inhibition using the KINOMEscan™ assay (Eurofins) which is based on a competition binding assay that quantitatively measures the ability of a compound to compete with an immobilized, active-site directed ligand. The assay was performed by combining three components: DNA-tagged kinase; immobilized ligand; and the test compound. The ability of the test compound to compete with the immobilized ligand was measured via quantitative PCR of the DNA tag.
Kinase-tagged T7 phage strains were prepared in an E. coli host derived from the BL21 strain. E. coli were grown to log-phase and infected with T7 phage and incubated with shaking at 32° C. until lysis. The lysates were centrifuged and filtered to remove cell debris. The remaining kinases were produced in HEK-293 cells and subsequently tagged with DNA for qPCR detection. Streptavidin-coated magnetic beads were treated with biotinylated small molecule ligands for 30 minutes at room temperature to generate affinity resins for kinase assays. […] Kds were determined using an 11-point 3-fold compound dilution series with three DMSO control points. […] The kinase concentration in the eluates was measured by qPCR. […]
Binding constants (Kds) were calculated with a standard dose-response curve using the Hill equation: Response=Background+[Signal−Background/1+(Kd^Hill Slope/Dose^Hill Slope)] […]

H69AR = assay: Cell viability assay, H69AR; type: cell-based; conditions: SCLC doxorubicin resistant cell line H69AR
Procedure: Antitumor activity of the compounds and doxorubicin as a positive control was assessed by using the CellTiter-Blue Cell Viability Assay (Promega, #G8082) or CellTiter-Glow® Luminescent Cell Viability assay (Promega #G7572) according to the manufacturer's instructions. The compounds were tested at 5 or 6 concentrations in half-log increments (highest concentration 30 μM or 100 μM) in duplicate or triplicate well conditions.
Tumor cells were grown at 37° C. in a humidified atmosphere with 5% CO2 in RPMI 1640 or DMEM medium, supplemented with 10% (v/v) fetal calf serum and 50 μg/ml gentamicin for up to 20 passages, and were passaged once or twice weekly. Cells were harvested using TrypLE or PBS buffer containing 1 mM EDTA, and the percentage of viable cells was determined using a CASY Model TI cell counter (OMNI Life Science). Cells were harvested from exponential phase cultures, counted and plated in 96 well flat-bottom microtiter plates at a cell density depending on the cell line's growth rate (4,000-20,000 cells/well depending on the cell line's growth rate, up to 60,000 for hematological cancer cell lines) in RPMI 1640 or DMEM medium supplemented with 10% (v/v) fetal calf serum and 50 μg/ml gentamicin (140 μl/well). […] Viability of cells was quantified by the CellTiter-Blue® cell viability assay (Promega G8081) or CellTiter-Glow® Luminescent Cell Viability assay (Promega #G7572). […]

T1 sequence (P00519 whole entry): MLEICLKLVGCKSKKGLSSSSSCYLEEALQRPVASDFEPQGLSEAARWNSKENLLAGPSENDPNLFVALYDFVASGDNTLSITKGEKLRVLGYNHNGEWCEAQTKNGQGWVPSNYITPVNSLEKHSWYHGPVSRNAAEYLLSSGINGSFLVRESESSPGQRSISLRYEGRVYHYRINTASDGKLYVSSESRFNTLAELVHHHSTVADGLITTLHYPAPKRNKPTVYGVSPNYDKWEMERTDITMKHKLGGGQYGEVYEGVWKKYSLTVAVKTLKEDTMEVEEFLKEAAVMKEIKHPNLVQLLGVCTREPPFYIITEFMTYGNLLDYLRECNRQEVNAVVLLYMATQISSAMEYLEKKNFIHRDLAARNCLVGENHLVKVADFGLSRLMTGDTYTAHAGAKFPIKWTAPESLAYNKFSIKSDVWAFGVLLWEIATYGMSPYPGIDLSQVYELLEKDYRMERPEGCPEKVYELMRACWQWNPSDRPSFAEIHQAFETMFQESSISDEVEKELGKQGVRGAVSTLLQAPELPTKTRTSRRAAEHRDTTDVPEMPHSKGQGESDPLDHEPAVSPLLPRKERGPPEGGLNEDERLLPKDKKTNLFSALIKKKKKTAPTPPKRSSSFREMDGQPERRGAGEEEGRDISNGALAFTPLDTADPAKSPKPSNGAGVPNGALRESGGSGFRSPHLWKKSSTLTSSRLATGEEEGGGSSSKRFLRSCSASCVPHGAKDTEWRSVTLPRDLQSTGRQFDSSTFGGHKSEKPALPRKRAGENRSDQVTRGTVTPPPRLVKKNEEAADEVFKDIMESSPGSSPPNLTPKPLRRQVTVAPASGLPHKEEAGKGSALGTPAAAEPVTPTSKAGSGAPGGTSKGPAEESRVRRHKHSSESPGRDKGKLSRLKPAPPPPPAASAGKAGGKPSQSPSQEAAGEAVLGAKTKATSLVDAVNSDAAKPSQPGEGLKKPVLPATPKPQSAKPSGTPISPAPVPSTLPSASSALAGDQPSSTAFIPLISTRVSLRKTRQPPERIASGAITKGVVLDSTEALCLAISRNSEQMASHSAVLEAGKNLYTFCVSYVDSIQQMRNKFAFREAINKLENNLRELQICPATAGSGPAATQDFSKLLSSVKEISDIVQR

| Kd (ABL1-nonphosphorylated) [µM] | SMILES | IC50 (breast PDX) [µM] | IC50 (H69AR) [µM] |
| --- | --- | --- | --- |
| 0.46 | COc1c(O)ccc2c(=O)c(O)c(-c3ccc(CCCC[P+](c4ccccc4)(c4ccccc4)c4ccccc4)cc3)oc12 [SND190, (4-(4-(3,7-Dihydroxy-8-methoxy-4-oxo-4H1-chromen-2-yl)phenyl)butyl)triphenylphosphonium bromide] | < 20 | – |
| – | O=c1cc(-c2ccc(CCC[P+](c3ccccc3)(c3ccccc3)c3ccccc3)cc2)oc2c(O)c(O)ccc12 [SND200, (3-(4-(7,8-Dihydroxy-4-oxo-4H1-chromen-2-yl)phenyl)propyl)triphenylphosphonium bromide] | – | 4 to 25 |
